Results taken from patent publication US10265132B2, “Antimicrobial elastomeric articles” (ALLEGIANCE CORPORATION, priority 2012, dated 2019).

How the values were obtained:
[1] = system: E. coli; assay: Antimicrobial activity (log reduction) of coated gloves against E. coli, 5 minute exposure time
Description: (§1) Antimicrobial Activity: The antimicrobial activity of sample 1-1 was tested before and after aging against E. coli and MRSA with a 5 minute exposure time:
(§2) The coating composition and formulation fabrication remained the same as describe in Example 1. Sample 2-1 describes coated gloves that were stored in desiccated environments (described above in Example 1) before and after the application of the antimicrobial coating. Samples 2-2 and 2-3 represent coated gloves that were pre- and post-conditioned (using the technique described above in Example 1), respectively. Sample 2-4 describes coated gloves that were not desiccated before or after application of the antimicrobial coating. Samples 2-1 through 2-4 were tested before and after conditioning against E. coli and MRSA with a 5 minute exposure time.
The coating composition, formulation fabrication, and coating application method remained the same as described in Example 1, Sample 3-1 describes antimicrobial-coated gloves that were exposed to 23° C. with a relative humidity of 45%. Sample 3-2 describes antimicrobial-coated gloves that were exposed to 23° C. with a relative humidity of 55%. Sample 3-3 describes antimicrobial-coated gloves that were exposed to 23° C. with a relative humidity of 75%. All samples were tested after one and two weeks exposure to the temperature and humidity levels. Antimicrobial efficacy was recorded against E. coli after a 5 minute exposure time. […]
(§3) The formulation fabrication and coating application were the same as described in Example 1. […] These formulations were then applied to the gloves and the concentration of CHG needed on the coated glove in order to achieve at least 4 log efficacy was measured. The concentration of CHG was measured using UV-Visible spectroscopy with the assistance of a sodium hypobromite indicator. CHG was extracted from the glove using water and the unknown concentration was calculated versus a predetermined standard curve. The antimicrobial efficacy after an exposure time of 5 minutes was determined against E. coli and MRSA.

[2] = system: MRSA; assay: Antimicrobial activity (log reduction) of coated gloves against MRSA, 5 minute exposure time; design: species or system methicillin-resistant Staphylococcus aureus
Description: as §1, §2
The coating composition, formulation fabrication, and coating application method remained the same as described in Example 1. Antimicrobial gloves were packed into two packaging prototypes. The prototypes contained the antimicrobial coated gloves and the prototypes were subjected to outside conditions meant to simulated real world conditions experienced by medical glove products. Sample 4-1 is a control glove that was not packaged. Sample 4-2 is a packaging prototype comprised of Amcor aluminum foil laminate packaging containing antimicrobial-coated gloves and desiccant. […]
as §3

[3] = system: broad spectrum of microbes; assay: Minimum concentration of CHG on coated glove needed for 4 log efficacy in 5 minutes; conditions: 5 minutes exposure, E. coli and MRSA
Description: The formulation fabrication and coating application were the same as described in Example 1. The concentration of the active component, CHG, was varied in the formulation. These formulations were then applied to the gloves and the concentration of CHG needed on the coated glove in order to achieve at least 4 log efficacy was measured. The concentration of CHG was measured using UV-Visible spectroscopy with the assistance of a sodium hypobromite indicator. CHG was extracted from the glove using water and the unknown concentration was calculated versus a predetermined standard curve. The antimicrobial efficacy after an exposure time of 5 minutes was determined against E. coli and MRSA.

[4] = CHG concentration on glove 2.09 μg/cm^2, 5 minutes exposure
[5] = CHG concentration on glove 7.63 μg/cm^2, 5 minutes exposure
[6] = CHG concentration on glove 11.90 μg/cm^2, 5 minutes exposure

**Q.** Which results are given for N=C(NCCCCCCNC(=N)NC(=N)Nc1ccc(Cl)cc1)NC(=N)Nc1ccc(Cl)cc1.O=C(O)[C@H](O)[C@@H](O)[C@H](O)[C@H](O)CO.O=C(O)[C@H](O)[C@@H](O)[C@H](O)[C@H](O)CO [CHG, chlorhexidine digluconate]?
**A.** Log Reduction E. coli [1, 4]: 1.67 log; Log Reduction E. coli [1, 5]: 4.18 log; Log Reduction E. coli [1, 6]: 4.72 log; Log Reduction MRSA [2, 4]: 3.08 log; Log Reduction MRSA [2, 5]: 4.16 log; Log Reduction MRSA [2, 6]: 4.06 log; CHG needed to offer 4 log antimicrobial efficacy [3]: about 7.6 μg
